The values that follow come from US9453031B2, “Chemical entities” (Fundación Centro Nacional de Investigaciones Oncológicas …, priority 2013, dated 2016).

Data set [1] deals with T1, ATR (Homo sapiens (Human), UniProt Q13535). The data set is described as follows: Cellular ATR inhibition, western blot of CHK1(S345) phosphorylation in hydroxyurea treated cells. The conditions noted are these: HT29 cells, hydroxyurea 2.5 mM. The data set is classed as cell-based. In short, it runs like this: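 HT29 cells exposed to compound (3-fold dilutions from 10 μM final) for 15 min, then 2.5 mM hydroxyurea for 30 min at 37 °C. Lysates blotted for pS345-CHK1 and total CHK1, infrared-imaged; ratio normalized to hydroxyurea-only cells as 100%, EC50 from concentration–response.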
A general note: A western blot detects proteins with antibodies after separation by electrophoresis.

A further data set deals with CYP 1A2 (Homo sapiens (Human), UniProt P05177). The data set is described as follows: CYP inhibition assay (P450-Glo). The data set is classed as in vitro ADME. The conditions noted are these: recombinant CYP.
Another data set concerns the target CYP 2C19 (Homo sapiens (Human), UniProt P33261). The data set is described as follows: CYP inhibition assay (P450-Glo). The conditions noted are these: recombinant CYP. The class given is in vitro ADME.
A further data set concerns the target CYP 2D6 (Homo sapiens (Human), UniProt P10635). Kind of data set: CYP inhibition assay (P450-Glo). The data set is classed as in vitro ADME. Conditions: recombinant CYP.
The next data set deals with Eμmyc lymphoma cells. The data set is described as follows: In vivo efficacy, mice injected intravenously with Eμmyc lymphoma cells. The conditions noted are these: C57BL/6 mice. The procedure:
The efficacy of compounds of the invention alone or in combination with chemotherapeutics agents were measured in vivo by implanting allografts or xenografts of cancer cells in rodents and treating the tumour-bearing animals with the compounds alone or in combination with chemotherapeutics agents.
Recipient mice were monitored for tumor formation by the presence of tumoral cells in the blood (LDH measurement), and twice a week by palpation of the pre-scapular and cervical lymph-nodes, once a week by sonography measurement of thoracic lymph-nodes size. […] Efficacy of the treatment was done evaluating the relative weight of all tumoral tissues (spleen, salivary lymph-nodes, mammary lymph-nodes, thymus and mesenteric lymph-nodes) versus body weight substrating the relative weight of same normal tissues. Bars represent standard error of the mean (n=8).

The next data set has as its target CYP 2C9 (Homo sapiens (Human), UniProt P11712). The data set is described as follows: CYP inhibition assay (P450-Glo). The conditions noted are these: read-out: P450-2C9 IC50; recombinant CYP.
The target of the next data set is CYP 3A4 (Homo sapiens (Human), UniProt P08684). The data set is described as follows: CYP inhibition assay (P450-Glo). Conditions: read-out: P450-3A4 IC50; recombinant CYP.
Data set [2] has as its target T1, ATR. Kind of data set: Cellular ATR inhibition, pChk1 Ser345 after UV mimetic 4NQO. The data set is classed as cell-based. The conditions noted are these: HT-29, read-out: UV mimetic inhibition of CHK1P at 10 μM (%); 10 μM compound, 3 μM 4NQO, HT29 cells. The source says:
(§1) ATM and ATR have distinct and overlapping responses to DNA damage. They must participate together and responses must be coordinated. Both pathways may be activated by ionizing radiation, and UV. As UV treatment is not practical for use in a high throughput cell assay, the UV mimetic 4NQO (Sigma) was chosen to activate the ATR and ATM DNA damage response pathway.
(§2) Chk1, a downstream protein kinase of ATR, has a key role in DNA damage checkpoint control, as well as Chk2 downstream of ATM. […] This assay measures a decrease in phosphorylation of Chk1 (Ser 345) and […] in HT29 colon adenocarcinoma cells following treatment with compound and the UV mimetic 4NQO. Compounds at 1 mM were created by diluting in 100% DMSO and then diluted 1:100 into assay media (RPMI, 10% FCS, 1% glutamine). Cells were plated in 6 well Costar plates at 5×10^5 cells per mL in 2 mL RPMI, 10% FCS, 1% glutamine and grown for 24 hrs. Following addition of compound the cells were incubated for 60 minutes. A final concentration of 3 μM 4NQO (prepared in 100% DMSO) was then added and the cells incubated for a further 60 mins. The cells are lysed and pChk1 Ser345 and pCHK2 Thr68 (Cell Signaling Technology, #2661) versus total CHK1 and CHK2 (Santa Cruz Biotechnology, se-5278) respectively has analysed by western blot as described above. The percentage of phosphorylated CHK1 versus total CHK1 or p-CHK2 versus total CHK2 in cells treated with 4NQO was taken as hundred percent of phosphorylation. The percentage of CHK1 or CHK2 phosphorylation is finally plotted against concentration for each compound and EC50s for intracellular ATR inhibition are calculated using ActivityBase from IDBS.

A further data set deals with ATM (Homo sapiens (Human), UniProt Q13315). Kind of data set: Cellular ATM inhibition, pCHK2 Thr68 after UV mimetic 4NQO. The data set is classed as cell-based. The conditions noted are these: HT-29, read-out: UV mimetic inhibition of CHK2P at 10 μM (%); 10 μM compound, 3 μM 4NQO, HT29 cells.
Source text: as §1, §2

T1 sequence (Q13535 whole entry): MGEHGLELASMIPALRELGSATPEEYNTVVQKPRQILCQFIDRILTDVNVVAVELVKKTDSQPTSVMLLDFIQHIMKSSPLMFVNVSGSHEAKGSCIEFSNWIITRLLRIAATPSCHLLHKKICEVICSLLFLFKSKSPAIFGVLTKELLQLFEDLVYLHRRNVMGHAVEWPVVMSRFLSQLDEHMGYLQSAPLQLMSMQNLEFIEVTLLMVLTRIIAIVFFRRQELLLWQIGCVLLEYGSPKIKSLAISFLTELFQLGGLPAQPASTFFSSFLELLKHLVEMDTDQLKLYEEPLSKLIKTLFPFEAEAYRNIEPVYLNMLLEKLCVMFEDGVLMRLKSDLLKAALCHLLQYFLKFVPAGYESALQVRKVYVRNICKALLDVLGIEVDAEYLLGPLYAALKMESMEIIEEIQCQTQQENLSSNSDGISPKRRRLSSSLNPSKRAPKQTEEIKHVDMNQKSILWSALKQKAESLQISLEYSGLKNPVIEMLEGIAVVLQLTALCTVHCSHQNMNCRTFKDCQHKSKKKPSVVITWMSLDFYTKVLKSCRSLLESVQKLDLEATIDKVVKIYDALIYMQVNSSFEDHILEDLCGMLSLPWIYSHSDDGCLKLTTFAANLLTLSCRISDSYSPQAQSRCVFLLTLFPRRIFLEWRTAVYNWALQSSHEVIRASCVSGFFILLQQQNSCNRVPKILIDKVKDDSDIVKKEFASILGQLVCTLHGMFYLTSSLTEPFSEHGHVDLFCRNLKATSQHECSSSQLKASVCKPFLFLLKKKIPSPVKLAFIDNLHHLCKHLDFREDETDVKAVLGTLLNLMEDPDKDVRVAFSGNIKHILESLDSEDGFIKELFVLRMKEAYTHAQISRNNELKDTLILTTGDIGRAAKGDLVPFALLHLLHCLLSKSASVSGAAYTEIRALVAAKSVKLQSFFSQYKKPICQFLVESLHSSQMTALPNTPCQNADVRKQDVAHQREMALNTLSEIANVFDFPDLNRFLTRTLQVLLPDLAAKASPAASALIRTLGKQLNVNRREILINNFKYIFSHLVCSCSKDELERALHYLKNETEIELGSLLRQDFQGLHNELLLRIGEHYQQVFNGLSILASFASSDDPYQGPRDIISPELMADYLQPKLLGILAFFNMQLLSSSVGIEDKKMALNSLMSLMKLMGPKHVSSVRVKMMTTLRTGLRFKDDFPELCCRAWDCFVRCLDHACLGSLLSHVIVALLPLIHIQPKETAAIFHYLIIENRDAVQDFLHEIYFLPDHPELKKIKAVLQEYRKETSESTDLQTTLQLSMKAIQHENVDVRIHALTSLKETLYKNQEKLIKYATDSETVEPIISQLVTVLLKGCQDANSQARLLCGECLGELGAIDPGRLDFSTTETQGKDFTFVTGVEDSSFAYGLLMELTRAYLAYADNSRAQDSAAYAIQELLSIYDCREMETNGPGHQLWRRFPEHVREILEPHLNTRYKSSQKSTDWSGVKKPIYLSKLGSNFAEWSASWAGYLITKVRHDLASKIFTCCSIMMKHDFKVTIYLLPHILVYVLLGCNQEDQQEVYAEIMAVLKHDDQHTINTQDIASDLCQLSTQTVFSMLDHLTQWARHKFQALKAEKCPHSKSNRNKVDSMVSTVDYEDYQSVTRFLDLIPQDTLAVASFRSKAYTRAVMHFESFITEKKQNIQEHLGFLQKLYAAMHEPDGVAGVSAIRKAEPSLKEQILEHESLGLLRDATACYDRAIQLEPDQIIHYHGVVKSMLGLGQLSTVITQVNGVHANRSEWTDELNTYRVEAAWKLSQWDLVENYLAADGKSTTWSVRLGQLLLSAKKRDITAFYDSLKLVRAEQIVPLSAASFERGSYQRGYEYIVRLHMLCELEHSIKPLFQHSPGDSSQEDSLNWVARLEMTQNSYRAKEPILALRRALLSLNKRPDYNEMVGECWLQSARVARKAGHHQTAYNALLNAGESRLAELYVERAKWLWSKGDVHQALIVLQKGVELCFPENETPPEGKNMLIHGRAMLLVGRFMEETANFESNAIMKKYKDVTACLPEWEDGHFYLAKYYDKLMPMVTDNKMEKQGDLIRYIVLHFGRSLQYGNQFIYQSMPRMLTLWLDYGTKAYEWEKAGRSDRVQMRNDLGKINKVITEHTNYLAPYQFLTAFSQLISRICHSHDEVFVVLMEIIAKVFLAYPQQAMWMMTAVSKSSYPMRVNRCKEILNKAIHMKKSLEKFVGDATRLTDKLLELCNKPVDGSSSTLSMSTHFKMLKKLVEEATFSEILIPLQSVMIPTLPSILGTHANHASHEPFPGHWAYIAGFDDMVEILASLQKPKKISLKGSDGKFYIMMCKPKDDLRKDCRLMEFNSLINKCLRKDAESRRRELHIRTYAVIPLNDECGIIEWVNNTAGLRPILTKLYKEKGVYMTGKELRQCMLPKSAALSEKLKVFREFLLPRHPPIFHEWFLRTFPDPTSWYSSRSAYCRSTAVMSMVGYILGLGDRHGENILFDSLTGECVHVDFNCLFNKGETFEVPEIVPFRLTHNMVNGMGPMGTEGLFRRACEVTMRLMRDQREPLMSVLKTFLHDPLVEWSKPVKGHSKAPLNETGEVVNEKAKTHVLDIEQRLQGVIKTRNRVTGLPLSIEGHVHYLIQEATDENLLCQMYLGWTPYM
Chain of CYP 3A4 (P08684 whole entry): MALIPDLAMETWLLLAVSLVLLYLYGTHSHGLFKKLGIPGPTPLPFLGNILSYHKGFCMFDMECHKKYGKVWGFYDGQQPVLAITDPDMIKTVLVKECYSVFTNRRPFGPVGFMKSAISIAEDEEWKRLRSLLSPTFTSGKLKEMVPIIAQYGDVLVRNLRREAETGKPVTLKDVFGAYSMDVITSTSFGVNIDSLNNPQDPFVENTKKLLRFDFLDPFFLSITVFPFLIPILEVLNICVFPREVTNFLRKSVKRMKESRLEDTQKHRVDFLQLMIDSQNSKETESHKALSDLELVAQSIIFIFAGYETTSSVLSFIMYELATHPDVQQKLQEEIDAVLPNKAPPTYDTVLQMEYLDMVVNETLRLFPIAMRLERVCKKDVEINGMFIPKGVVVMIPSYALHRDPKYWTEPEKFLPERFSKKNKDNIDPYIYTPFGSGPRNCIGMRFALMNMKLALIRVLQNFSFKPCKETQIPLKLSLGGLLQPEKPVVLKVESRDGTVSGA
Chain of CYP 2C19 (P33261 whole entry): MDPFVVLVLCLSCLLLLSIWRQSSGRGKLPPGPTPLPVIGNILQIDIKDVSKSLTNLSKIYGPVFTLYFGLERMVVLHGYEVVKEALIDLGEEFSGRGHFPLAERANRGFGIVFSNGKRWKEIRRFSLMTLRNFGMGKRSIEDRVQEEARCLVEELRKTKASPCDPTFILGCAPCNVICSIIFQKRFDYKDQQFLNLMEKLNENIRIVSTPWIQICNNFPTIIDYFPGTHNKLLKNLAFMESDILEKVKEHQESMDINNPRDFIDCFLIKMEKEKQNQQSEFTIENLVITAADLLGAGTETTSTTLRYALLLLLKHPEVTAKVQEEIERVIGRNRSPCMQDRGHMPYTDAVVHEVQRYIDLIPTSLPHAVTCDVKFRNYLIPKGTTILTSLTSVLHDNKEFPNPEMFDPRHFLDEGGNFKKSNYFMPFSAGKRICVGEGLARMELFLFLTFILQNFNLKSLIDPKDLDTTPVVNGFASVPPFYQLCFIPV
Chain of CYP 2C9 (P11712 whole entry): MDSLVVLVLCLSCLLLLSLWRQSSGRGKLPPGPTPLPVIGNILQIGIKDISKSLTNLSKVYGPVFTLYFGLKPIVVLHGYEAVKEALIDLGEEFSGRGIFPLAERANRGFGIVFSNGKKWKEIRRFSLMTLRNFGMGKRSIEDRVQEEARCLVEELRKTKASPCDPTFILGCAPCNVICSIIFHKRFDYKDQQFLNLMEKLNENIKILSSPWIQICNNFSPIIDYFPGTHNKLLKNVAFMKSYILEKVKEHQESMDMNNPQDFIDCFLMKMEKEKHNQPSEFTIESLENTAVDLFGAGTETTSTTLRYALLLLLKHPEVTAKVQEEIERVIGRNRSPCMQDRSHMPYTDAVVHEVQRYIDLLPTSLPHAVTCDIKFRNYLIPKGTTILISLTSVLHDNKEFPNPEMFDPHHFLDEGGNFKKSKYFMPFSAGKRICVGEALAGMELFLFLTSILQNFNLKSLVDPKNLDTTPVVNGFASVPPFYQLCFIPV
Chain of CYP 1A2 (P05177 whole entry): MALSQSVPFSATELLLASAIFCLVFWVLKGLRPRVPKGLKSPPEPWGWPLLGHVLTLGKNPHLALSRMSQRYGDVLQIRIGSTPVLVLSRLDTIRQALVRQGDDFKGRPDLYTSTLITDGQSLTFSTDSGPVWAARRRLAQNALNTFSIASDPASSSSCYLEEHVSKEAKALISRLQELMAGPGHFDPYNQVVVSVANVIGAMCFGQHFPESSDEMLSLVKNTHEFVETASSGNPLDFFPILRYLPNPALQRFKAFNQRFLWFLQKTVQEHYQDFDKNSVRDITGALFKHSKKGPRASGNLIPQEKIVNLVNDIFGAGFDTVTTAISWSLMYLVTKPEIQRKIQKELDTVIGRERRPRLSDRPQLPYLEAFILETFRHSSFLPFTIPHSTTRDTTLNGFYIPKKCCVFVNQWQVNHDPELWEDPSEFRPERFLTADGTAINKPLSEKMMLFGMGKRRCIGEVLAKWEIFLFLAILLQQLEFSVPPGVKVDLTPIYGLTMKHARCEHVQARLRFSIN

For `CNc1nc2ccccc2n1-c1nc2c(c(C(C)(C)S(C)(=O)=O)n1)OC[C@@H]1COCCN21` [Example 11], the EC50 at ATR [1] is < 0.1 µM. The IC50 on CYP 1A2 was > 50 µM; on CYP 2C19 it was > 50 µM; on CYP 2D6 it was > 50 µM; at CYP 2C9 it was 34 µM; at CYP 3A4, 39 µM. For the same molecule, the “tumor growth inhibition (TGI)” value worked out at 53% with Eμmyc lymphoma cells (25 mg/kg oral once daily, day 33, compared to vehicle) and 74% in the data set on Eμmyc lymphoma cells (50 mg/kg oral once daily, day 33, compared to vehicle).
At ATR [1], `O=S(=O)(Cc1nc(-c2cccc3[nH]ccc23)nc2c1OCC1COCCN21)C(F)(F)F` (stereo not shown) [Example 5] yielded an EC50 of 0.1 to 1 µM. Besides, the inhibition at 10 µM at ATR [2] stood at 98%; on ATM, 0%.
Regarding `CNc1nc2ccccc2n1-c1nc2c(c(C(C)(C)S(C)(=O)=O)n1)OCC1COCCN21` (stereo not shown) [Example 8], the EC50 at ATR [1] is < 0.1 µM. Also, the inhibition at 10 µM was 98% on ATR [2] and 25% at ATM.
The like results for `CC(C)(c1nc(-c2cccc3[nH]ccc23)nc2c1OCC1COCCN21)S(C)(=O)=O` (stereo not shown) [Example 1] were, in that order, < 0.1 µM, 99% and 0%.
`CS(=O)(=O)C1(c2nc(-c3cccc4[nH]ccc34)nc3c2OC[C@@H]2COCCN32)CCOCC1` [Example 3]: the EC50 at ATR [1] was < 0.1 µM. Further, the values for the inhibition at 10 µM at ATR [2] and at ATM were 98% and 0%, respectively. Moreover, the 50% inhibitory concentration (IC50) on CYP 1A2, at CYP 2C19, on CYP 2C9 and at CYP 3A4 was > 50 µM in each case. Also, the “tumor growth inhibition (TGI)” value with Eμmyc lymphoma cells (25 mg/kg oral once daily, day 23, compared to vehicle) was 46%.

For orientation: EC50 means the midpoint of the concentration-response curve. A lower EC50 goes with a more potent agent. One may read the IC50 as the concentration needed to halve the response being measured. The inhibition is the relative decrease from the control value, in per cent.
